Results published in publication PMC4393269, “Carvacrol Codrugs: A New Approach in the Antimicrobial Plan” (PLoS ONE, 2015).
In brackets after ≈: the same amount, converted by molar mass.

Legend:
Type in all cases: cell-based
E. coli ATCC 8739 [1] = test: Broth microdilution MIC/MBC on planktonic cells; settings: Escherichia coli, ATCC8739
Procedure: (§1) Two Gram-positive (S. aureus ATCC 29213 and S. epidermidis ATCC 35984) and two Gram-negative (E. coli ATCC 8739 and P. aeruginosa ATCC 9027) strains, and one fungal strain (C. albicans ATCC 10231) were used for the detection of antibacterial activity of carvacrol, NAC, Ac-Cys(Allyl)-OH, and carvacrol codrugs 1–10. All tested compounds were dissolved in 20% DMSO to prepare the stock solution (100 mg/mL). The final concentration of DMSO in each well appeared to be not toxic for all studied microorganisms, as confirmed by the solvent control test included in the study.
(§2) The effects of carvacrol codrugs 1–10 and reference compounds on planktonic cells were evaluated by Minimum Inhibitory Concentration (MIC) and Minimum Bactericidal Concentration (MBC) determination using the broth microdilution method according to EUCAST guidelines. Bacterial suspensions, grown in Mueller–Hinton Broth (MHB) at logarithmic phase, were incubated on microtiter plates at a concentration of 5 x 10^5 CFU/mL, with several dilutions (0.07–40 mg/mL) for 24 h at 37°C. The MIC was defined as the lowest concentration of substances giving a complete inhibition of visible growth in comparison with a control well, and the MBC was determined as the lowest concentration at which no bacterial growth occurred on Mueller–Hinton Agar plates.
(§3) Data were obtained from at least three independent experiments performed in duplicate. The susceptibility of the bacterial strains against ciprofloxacin was used as an internal standard during MIC determinations.

P. aeruginosa ATCC 9027 [2] = test: Broth microdilution MIC/MBC on planktonic cells; settings: Pseudomonas aeruginosa, ATCC9027
Procedure: as §1, §2, §3

S. aureus ATCC 29213 [3] = test: Broth microdilution MIC/MBC on planktonic cells; settings: Staphylococcus aureus, ATCC29213
Procedure: as §1, §2, §3

[4] = test system: S. epidermidis ATCC 35984; test: Broth microdilution MIC/MBC on planktonic cells; settings: Staphylococcus epidermidis, ATCC35984
Procedure: as §1, §2, §3

C. albicans ATCC 10231 [5] = test: Broth microdilution MIC/MFC; settings: Candida albicans, ATCC10231
Procedure: as §1
The MIC detection of C. albicans ATCC 10231 was performed using the broth microdilution method according to EUCAST guidelines in RPMI 1640 plus 2% glucose with a final inoculum of 1–5 x 10^5 CFU/mL for 24–48 h at 37°C. The Minimum Fungicidal Concentration (MFC) was determined as the lowest concentration of substances at which no fungal growth occurred on Sabouraud agar plates.
as §3

[6] = test system: Gram positive and Gram negative tested bacteria; test: Broth microdilution MIC/MBC, range over the bacterial panel; settings: bacterial strains of Table 1
Procedure: as §1
as §2, with “plates. […]” for “plates.”

C. albicans ATCC 10231 [7] = test: Antibiofilm assay on established biofilm (BIC/BEC)
Procedure: (§4) The efficacy on established biofilm was evaluated by determining Biofilm Inhibitory Concentration (BIC) and Biofilm Eradication Concentration (BEC) according to the method described by Johnson et al. with some modifications. Bacterial suspensions, grown in Tryptic soy broth supplemented with 0.5% (v/v) glucose at logarithmic phase, as well as C. albicans grown in RPMI 1640 plus 2% glucose, were incubated on flat-bottomed microtiter plates at a concentration of 5 x 10^5 CFU/mL. After 24 h of incubation at 37°C, the planktonic cells were gently removed and wells were washed with sterile phosphate-buffered saline solution (PBS) pH 7.3 and filled with carvacrol, carvacrol codrug 4, Ac-Cys(Allyl)-OH with dilutions ranging from the MIC values to a maximum concentration of 50 mg/mL. The OD600 was measured at time 0 and after incubation for 24 h at 37°C. The BIC values were determined as the lowest concentrations where no growth occurred in the supernatant fluid, confirmed by no increase in optical density compared with the initial reading. The BEC values were determined as the lowest concentrations at which no bacterial growth occurred on Tryptic soy agar for bacteria and on Sabouraud agar for C. albicans. Data were obtained from at least three independent experiments performed in duplicate.

E. coli ATCC 8739 [8] = test: Antibiofilm assay on established biofilm (BIC/BEC)
Procedure: as §4

P. aeruginosa ATCC 9027 [9] = test: Antibiofilm assay on established biofilm (BIC/BEC)
Procedure: as §4

S. aureus ATCC 29213 [10] = test: Antibiofilm assay on established biofilm (BIC/BEC); settings: S. aureus ATCC 29213 established biofilm
Procedure: as §4

[11] = test system: S. epidermidis ATCC 35984; test: Antibiofilm assay on established biofilm (BIC/BEC)
Procedure: as §4

C=CCSC[C@H](NC(C)=O)C(=O)O [Ac-Cys(Allyl)-OH, N-Ac-Cys(Allyl)-OH]
MIC (E. coli ATCC 8739 [1]; E. coli ATCC 8739, 24 h at 37°C, read-out: MIC): 2500 µg/mL (≈ 12.3 mM)
MBC (E. coli ATCC 8739 [1]; E. coli ATCC 8739, read-out: MBC): 2500 µg/mL (≈ 12.3 mM)
MIC (P. aeruginosa ATCC 9027 [2]; P. aeruginosa ATCC 9027, 24 h at 37°C, read-out: MIC): 10000 µg/mL (≈ 49.2 mM)
MBC (P. aeruginosa ATCC 9027 [2]; P. aeruginosa ATCC 9027, read-out: MBC): 10000 µg/mL (≈ 49.2 mM)
MIC (S. aureus ATCC 29213 [3]; S. aureus ATCC 29213, 24 h at 37°C, read-out: MIC): 5000 µg/mL (≈ 24.6 mM)
MBC (S. aureus ATCC 29213 [3]; S. aureus ATCC 29213, read-out: MBC): 5000 µg/mL (≈ 24.6 mM)
MIC ([4]; S. epidermidis ATCC 35984, 24 h at 37°C, read-out: MIC): 5000 µg/mL (≈ 24.6 mM)
MBC ([4]; S. epidermidis ATCC 35984, read-out: MBC): 5000 µg/mL (≈ 24.6 mM)
MIC (C. albicans ATCC 10231 [5]; C. albicans ATCC 10231, 24–48 h at 37°C, read-out: MIC): 2500 µg/mL (≈ 12.3 mM)
MFC (C. albicans ATCC 10231 [5]; C. albicans ATCC 10231, read-out: MFC): 2500 µg/mL (≈ 12.3 mM)
MIC values (range over strains) [6]: 2500 to 10000 µg/mL
BEC as multiple of MIC (C. albicans ATCC 10231 [7]; C. albicans ATCC 10231): 2MIC
BIC as multiple of MIC (C. albicans ATCC 10231 [7]; C. albicans ATCC 10231): 2MIC
BEC (C. albicans ATCC 10231 [7]; C. albicans ATCC 10231 established biofilm): 5 mg/mL
BIC (C. albicans ATCC 10231 [7]; C. albicans ATCC 10231 established biofilm, 24 h): 5 mg/mL
BEC as multiple of MIC (E. coli ATCC 8739 [8]; E. coli ATCC 8739): 8MIC
BIC as multiple of MIC (E. coli ATCC 8739 [8]; E. coli ATCC 8739): 2MIC
BEC (E. coli ATCC 8739 [8]; E. coli ATCC 8739 established biofilm): 20 mg/mL
BIC (E. coli ATCC 8739 [8]; E. coli ATCC 8739 established biofilm, 24 h): 5 mg/mL
BEC as multiple of MIC (P. aeruginosa ATCC 9027 [9]; P. aeruginosa ATCC 9027): 2MIC
BEC (P. aeruginosa ATCC 9027 [9]; P. aeruginosa ATCC 9027 established biofilm): 20 mg/mL
BIC (P. aeruginosa ATCC 9027 [9]; P. aeruginosa ATCC 9027 established biofilm, 24 h): 10 mg/mL
BEC (S. aureus ATCC 29213 [10]): 20 mg/mL
BIC (S. aureus ATCC 29213 [10]; 24 h): 10 mg/mL
BEC as multiple of MIC ([11]; S. epidermidis ATCC 35984): 4MIC
BIC as multiple of MIC ([11]; S. epidermidis ATCC 35984): 4MIC
BEC ([11]; S. epidermidis ATCC 35984 established biofilm): 20 mg/mL
BIC ([11]; S. epidermidis ATCC 35984 established biofilm, 24 h): 20 mg/mL
